# Laboratory results from patent US20170273901A1, “SUNITINIB FORMULATIONS AND METHODS FOR USE THEREOF IN TREATMENT OF OCULAR DISORDERS” (THE JOHNS HOPKINS UNIVERSITY, priority 2014, published 2017).
# Tests used:
# [1] = Drug ocular retention in vivo after SC injection (autofluorescence imaging of eyeballs); parameters: species or system Sprague Dawley rats; conditions: rat eye
# Experimental: At post injection (PI) day 0, 1, 3, 7, 14 and 28, the whole eyeballs (n=4) were harvested after the animals were sacrificed. […] The fluorescent images were analyzed using the Living Image 3.0 software (Caliper Lifesciences, Inc.), and the retention of sunitinib was quantified by comparing to the fluorescence counts of the eye immediately undertaken SC injection. Rat eyes without SC injection were used as the baseline.
# corneal NV = assay: Treatment of suture-induced corneal NV, quantitative analysis of NV area and length; format: in vivo, Sprague Dawley rats; conditions: single SC injection 30 μL, 5 mg sunb-malate/mL; POD 5, 7, 14
# Description: Corneal NV was induced by intrastromal suturing. […] The distance between the stitch and the limbus was approximately 2 mm while there was a distance of 1 mm between the two stitches. […] Erythromycin antibiotic ointment was applied to prevent potential infection and corneal dry-up. The rats were followed for 2 weeks. The corneas of all rats were examined by slit-lamp biomicroscope (SL120; Carl Zeiss AG, Oberkochen, Germany) and corneal photographs were taken with a digital camera. The area and length of vascularized cornea were quantified with Photoshop CS3.0. The arc was drawn along the limbus, the vascularized area pixel measured and the corneal NV area was calculated using the following equation: The vascularized area was evenly divided into six sections. The distance between vessel tips and the limbus at the five intersection points of the arc was measured. The average of the five measured lengths was regarded as the corneal NV length.
# [2] = Solubility of sunb-malate in PBS; format: physicochemical
smiles,measurement,setting,value
"CCN(CC)CCNC(=O)c1c(C)[nH]c(/C=C2\C(=O)Nc3ccc(F)cc32)c1C.O=C(O)C[C@H](O)C(=O)O [Sunb-malate free drug, Sunitinib malate]",time to clearance after SC injection,[1]; 30 μL of 5 mg/mL,≤ 1 days
same,time to almost no drug retention in the eye,[1]; SC injection,≤ 24 h
same,inhibition of corneal NV (length and area),corneal NV,negligible effect
same,concentration dissolved in PBS,[2],at least 25 mg/mL
